Laboratory results reported in PubChem BioAssay (NCI).
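Five compound concentrations were applied to cells in 96-well plates for 48 hours; endpoints were derived by simple linear interpolation of the resulting dose-response curve. At the GI50, growth is halved. At the TGI there is no net growth.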

Each compound was assayed on UACC-62 melanoma (assay: NCI-60 cell line screen, 48 h).

Row | Structure (SMILES) | TGI [µM] | GI50 [µM]
1 | COC(=O)C1=C(C)N(NC(=O)c2ccccc2)C(C)(O)C12CCOC2=O (stereo not drawn) | > 100 | 
2 | CCC[CH2][Ge]([CH2]CCC)([CH2]CCC)[O]C(=O)CC(=O)c1ccccc1 | 10.1 | 1.7
3 | CCOC(CCNCC(OCC)OCC)OCC | > 10 | 
4 | CC1=CC(/C=C(\C)CCCc2ccoc2)C2(OC(=O)C(C)=C2O)[C@H]2C1CC[C@@H]2C (stereo partly drawn) | 37.5 | 
5 | O=C(O/N=C1/CCCC/C1=C\c1ccccc1)c1ccccc1 | > 100 | 

Each compound was assayed on RPMI-8226 leukemia (assay: NCI-60 cell line screen, 48 h).

Row | Structure (SMILES) | TGI [µM] | GI50 [µM]
6 | COc1cc(C2c3cc4c(cc3OC(N3CCCC3)C2C)OCO4)cc(OC)c1O (stereo not drawn) | > 100 | 
7 | COC(=O)C1=C(C)N(NC(=O)c2ccccc2)C(C)(O)C12CCOC2=O (stereo not drawn) | > 100 | 
8 | CCC[CH2][Ge]([CH2]CCC)([CH2]CCC)[O]C(=O)CC(=O)c1ccccc1 | > 100 | 0.959
9 | CCOC(CCNCC(OCC)OCC)OCC | > 10 | 
10 | CC1=CC(/C=C(\C)CCCc2ccoc2)C2(OC(=O)C(C)=C2O)[C@H]2C1CC[C@@H]2C (stereo partly drawn) | 59.6 | 
11 | O=C(O/N=C1/CCCC/C1=C\c1ccccc1)c1ccccc1 | > 100 | 

The compounds below were run on K-562 leukemia (assay: NCI-60 cell line screen, 48 h).

Row | Structure (SMILES) | TGI [µM] | GI50 [µM]
12 | COc1cc(C2c3cc4c(cc3OC(N3CCCC3)C2C)OCO4)cc(OC)c1O (stereo not drawn) | > 95.7 | 
13 | COC(=O)C1=C(C)N(NC(=O)c2ccccc2)C(C)(O)C12CCOC2=O (stereo not drawn) | > 100 | 
14 | CCC[CH2][Ge]([CH2]CCC)([CH2]CCC)[O]C(=O)CC(=O)c1ccccc1 | 14.7 | 0.346
15 | CCOC(CCNCC(OCC)OCC)OCC | > 10 | 
16 | CC1=CC(/C=C(\C)CCCc2ccoc2)C2(OC(=O)C(C)=C2O)[C@H]2C1CC[C@@H]2C (stereo partly drawn) | > 100 | 
17 | O=C(O/N=C1/CCCC/C1=C\c1ccccc1)c1ccccc1 | 41 | 

The compounds below were run on HS 578T breast (assay: NCI-60 cell line screen, 48 h).

Row | Structure (SMILES) | TGI [µM]
18 | COc1cc(C2c3cc4c(cc3OC(N3CCCC3)C2C)OCO4)cc(OC)c1O (stereo not drawn) | 37.4
19 | CCOC(CCNCC(OCC)OCC)OCC | > 10

What follows are compounds tested on SK-MEL-2 melanoma (assay: NCI-60 cell line screen, 48 h).

Row | Structure (SMILES) | TGI [µM] | GI50 [µM]
20 | COc1cc(C2c3cc4c(cc3OC(N3CCCC3)C2C)OCO4)cc(OC)c1O (stereo not drawn) | > 85.9 | 
21 | COC(=O)C1=C(C)N(NC(=O)c2ccccc2)C(C)(O)C12CCOC2=O (stereo not drawn) | 2.41 | 
22 | CCC[CH2][Ge]([CH2]CCC)([CH2]CCC)[O]C(=O)CC(=O)c1ccccc1 | 17.9 | 2.22
23 | CCOC(CCNCC(OCC)OCC)OCC | > 10 | 
24 | O=C(O/N=C1/CCCC/C1=C\c1ccccc1)c1ccccc1 | > 100 | 

The compounds below were run on SK-MEL-28 melanoma (assay: NCI-60 cell line screen, 48 h).

Row | Structure (SMILES) | TGI [µM] | GI50 [µM]
25 | COc1cc(C2c3cc4c(cc3OC(N3CCCC3)C2C)OCO4)cc(OC)c1O (stereo not drawn) | > 100 | 
26 | COC(=O)C1=C(C)N(NC(=O)c2ccccc2)C(C)(O)C12CCOC2=O (stereo not drawn) | > 100 | 
27 | CCC[CH2][Ge]([CH2]CCC)([CH2]CCC)[O]C(=O)CC(=O)c1ccccc1 | 19.1 | 4.48
28 | CCOC(CCNCC(OCC)OCC)OCC | > 10 | 
29 | CC1=CC(/C=C(\C)CCCc2ccoc2)C2(OC(=O)C(C)=C2O)[C@H]2C1CC[C@@H]2C (stereo partly drawn) | > 100 | 
30 | O=C(O/N=C1/CCCC/C1=C\c1ccccc1)c1ccccc1 | > 100 | 

Each compound was assayed on MOLT-4 leukemia (assay: NCI-60 cell line screen, 48 h).

Row | Structure (SMILES) | TGI [µM] | GI50 [µM]
31 | COc1cc(C2c3cc4c(cc3OC(N3CCCC3)C2C)OCO4)cc(OC)c1O (stereo not drawn) | > 100 | 
32 | COC(=O)C1=C(C)N(NC(=O)c2ccccc2)C(C)(O)C12CCOC2=O (stereo not drawn) | > 100 | 
33 | CCC[CH2][Ge]([CH2]CCC)([CH2]CCC)[O]C(=O)CC(=O)c1ccccc1 | 18 | 0.457
34 | CCOC(CCNCC(OCC)OCC)OCC | > 10 | 
35 | CC1=CC(/C=C(\C)CCCc2ccoc2)C2(OC(=O)C(C)=C2O)[C@H]2C1CC[C@@H]2C (stereo partly drawn) | 41.3 | 
36 | O=C(O/N=C1/CCCC/C1=C\c1ccccc1)c1ccccc1 | 49 | 

What follows are compounds tested on HL-60(TB) leukemia (assay: NCI-60 cell line screen, 48 h).

Row | Structure (SMILES) | TGI [µM] | GI50 [µM]
37 | COc1cc(C2c3cc4c(cc3OC(N3CCCC3)C2C)OCO4)cc(OC)c1O (stereo not drawn) | > 92.7 | 
38 | COC(=O)C1=C(C)N(NC(=O)c2ccccc2)C(C)(O)C12CCOC2=O (stereo not drawn) | > 100 | 
39 | CCC[CH2][Ge]([CH2]CCC)([CH2]CCC)[O]C(=O)CC(=O)c1ccccc1 | 11.5 | 0.138
40 | CCOC(CCNCC(OCC)OCC)OCC | > 10 | 
41 | O=C(O/N=C1/CCCC/C1=C\c1ccccc1)c1ccccc1 | 40.2 | 

The compounds below were run on U251 CNS (assay: NCI-60 cell line screen, 48 h).

Row | Structure (SMILES) | TGI [µM] | GI50 [µM]
42 | COc1cc(C2c3cc4c(cc3OC(N3CCCC3)C2C)OCO4)cc(OC)c1O (stereo not drawn) | 42.6 | 
43 | COC(=O)C1=C(C)N(NC(=O)c2ccccc2)C(C)(O)C12CCOC2=O (stereo not drawn) | > 100 | 
44 | CCC[CH2][Ge]([CH2]CCC)([CH2]CCC)[O]C(=O)CC(=O)c1ccccc1 | 17.6 | 3.27
45 | CCOC(CCNCC(OCC)OCC)OCC | > 10 | 
46 | CC1=CC(/C=C(\C)CCCc2ccoc2)C2(OC(=O)C(C)=C2O)[C@H]2C1CC[C@@H]2C (stereo partly drawn) | 67.1 | 
47 | O=C(O/N=C1/CCCC/C1=C\c1ccccc1)c1ccccc1 | > 100 | 

What follows are compounds tested on NCI-H460 lung (assay: NCI-60 cell line screen, 48 h).

Row | Structure (SMILES) | TGI [µM] | GI50 [µM]
48 | COc1cc(C2c3cc4c(cc3OC(N3CCCC3)C2C)OCO4)cc(OC)c1O (stereo not drawn) | > 100 | 
49 | COC(=O)C1=C(C)N(NC(=O)c2ccccc2)C(C)(O)C12CCOC2=O (stereo not drawn) | > 100 | 
50 | CCC[CH2][Ge]([CH2]CCC)([CH2]CCC)[O]C(=O)CC(=O)c1ccccc1 | 12.4 | 0.325
51 | CCOC(CCNCC(OCC)OCC)OCC | > 10 | 

What follows are compounds tested on SN12C renal (assay: NCI-60 cell line screen, 48 h).

Row | Structure (SMILES) | TGI [µM] | GI50 [µM]
52 | COc1cc(C2c3cc4c(cc3OC(N3CCCC3)C2C)OCO4)cc(OC)c1O (stereo not drawn) | > 83.7 | 
53 | COC(=O)C1=C(C)N(NC(=O)c2ccccc2)C(C)(O)C12CCOC2=O (stereo not drawn) | > 100 | 
54 | CCC[CH2][Ge]([CH2]CCC)([CH2]CCC)[O]C(=O)CC(=O)c1ccccc1 | 15 | 0.538
55 | CCOC(CCNCC(OCC)OCC)OCC | > 10 | 
56 | CC1=CC(/C=C(\C)CCCc2ccoc2)C2(OC(=O)C(C)=C2O)[C@H]2C1CC[C@@H]2C (stereo partly drawn) | 60.8 | 
57 | O=C(O/N=C1/CCCC/C1=C\c1ccccc1)c1ccccc1 | > 100 | 

The compounds below were run on SNB-75 CNS (assay: NCI-60 cell line screen, 48 h).

Row | Structure (SMILES) | TGI [µM]
58 | COc1cc(C2c3cc4c(cc3OC(N3CCCC3)C2C)OCO4)cc(OC)c1O (stereo not drawn) | 24.5
59 | CCOC(CCNCC(OCC)OCC)OCC | > 10
60 | CC1=CC(/C=C(\C)CCCc2ccoc2)C2(OC(=O)C(C)=C2O)[C@H]2C1CC[C@@H]2C (stereo partly drawn) | > 100
61 | O=C(O/N=C1/CCCC/C1=C\c1ccccc1)c1ccccc1 | > 100

Each compound was assayed on OVCAR-4 ovarian (assay: NCI-60 cell line screen, 48 h).

Row | Structure (SMILES) | TGI [µM] | GI50 [µM]
62 | COc1cc(C2c3cc4c(cc3OC(N3CCCC3)C2C)OCO4)cc(OC)c1O (stereo not drawn) | > 100 | 
63 | COC(=O)C1=C(C)N(NC(=O)c2ccccc2)C(C)(O)C12CCOC2=O (stereo not drawn) | > 100 | 
64 | CCC[CH2][Ge]([CH2]CCC)([CH2]CCC)[O]C(=O)CC(=O)c1ccccc1 | 21.3 | 2.49
65 | CCOC(CCNCC(OCC)OCC)OCC | > 10 | 

What follows are compounds tested on HOP-92 NSCLC (assay: NCI-60 cell line screen, 48 h).

Row | Structure (SMILES) | TGI [µM] | GI50 [µM]
66 | COc1cc(C2c3cc4c(cc3OC(N3CCCC3)C2C)OCO4)cc(OC)c1O (stereo not drawn) | > 78.5 | 
67 | CCC[CH2][Ge]([CH2]CCC)([CH2]CCC)[O]C(=O)CC(=O)c1ccccc1 | 9.88 | 0.331
68 | CCOC(CCNCC(OCC)OCC)OCC | > 10 | 
69 | CC1=CC(/C=C(\C)CCCc2ccoc2)C2(OC(=O)C(C)=C2O)[C@H]2C1CC[C@@H]2C (stereo partly drawn) | 41 | 
70 | O=C(O/N=C1/CCCC/C1=C\c1ccccc1)c1ccccc1 | > 100 | 

These compounds were tested on SR leukemia (assay: NCI-60 cell line screen, 48 h).

Row | Structure (SMILES) | TGI [µM] | GI50 [µM]
71 | COc1cc(C2c3cc4c(cc3OC(N3CCCC3)C2C)OCO4)cc(OC)c1O (stereo not drawn) | > 100 | 
72 | CCC[CH2][Ge]([CH2]CCC)([CH2]CCC)[O]C(=O)CC(=O)c1ccccc1 | 33.6 | 0.707
73 | CCOC(CCNCC(OCC)OCC)OCC | > 10 | 
74 | O=C(O/N=C1/CCCC/C1=C\c1ccccc1)c1ccccc1 | > 100 | 

The compounds below were run on HOP-62 NSCLC (assay: NCI-60 cell line screen, 48 h).

Row | Structure (SMILES) | TGI [µM] | GI50 [µM]
75 | COc1cc(C2c3cc4c(cc3OC(N3CCCC3)C2C)OCO4)cc(OC)c1O (stereo not drawn) | 56.7 | 
76 | COC(=O)C1=C(C)N(NC(=O)c2ccccc2)C(C)(O)C12CCOC2=O (stereo not drawn) | > 100 | 
77 | CCC[CH2][Ge]([CH2]CCC)([CH2]CCC)[O]C(=O)CC(=O)c1ccccc1 | 13.6 | 2.2
78 | CCOC(CCNCC(OCC)OCC)OCC | > 10 | 
79 | O=C(O/N=C1/CCCC/C1=C\c1ccccc1)c1ccccc1 | > 100 | 
